Test results as given in patent publication US20040242591A1, “Oxazolidinone derivatives as pontential antimicrobials” (priority 2001, published 2004).

Key:
S. pneum AB 34 = assay: MIC by agar incorporation method, S. pneum AB 34; format: cell-based, Streptococcus pneumoniae; design: unit not given here; conditions: Mueller Hinton agar, 10^4 CFU/spot, 18 hours
VRE 6A = assay: MIC by agar incorporation method, VRE 6A; format: cell-based, Enterococcus faecium; design: unit not given here; conditions: Mueller Hinton agar, 10^4 CFU/spot, 18 hours
Text: 4) Ent. faecium […]—Enterococcus faecium 6A Van®, Cipro®

S.aureus ATCC 25923 = assay: MIC by agar incorporation method, S.aureus 25923; format: cell-based, Staphylococus aureus; design: unit not given here; conditions: Mueller Hinton agar, 10^4 CFU/spot, 18 hours
MRSA 562 = assay: MIC by agar incorporation method, MRSA 562; format: cell-based, Methicillin Resistant Staphylococcus aureus; design: unit not given here; conditions: Mueller Hinton agar, 10^4 CFU/spot, 24 hours
Strep. pne. ATCC 6303 = assay: MIC by agar incorporation method, S. pneum 6303; format: cell-based, Streptococcus pneumoniae; conditions: Mueller Hinton agar, 10^4 CFU/spot, 18 hours
Text: 5) Strep. pne. ATCC 6303—Streptococcus pneumoniae ATCC 6303

MRSA 33 = assay: MIC by agar incorporation method, MRSA 33; format: cell-based, Methicillin Resistant Staphylococcus aureus; design: unit not given here; conditions: Mueller Hinton agar, 10^4 CFU/spot, 24 hours
Ent. faecalis ATCC 29212 = assay: MIC by agar incorporation method, E.faecalis 29212; format: cell-based, Enterococcus faecalis; design: unit not given here; conditions: Mueller Hinton agar, 10^4 CFU/spot, 18 hours
Text: 3) Ent. faecalis ATCC 29212—Enterococcus faecalis ATCC 29212

MRSA 15187 = assay: MIC by agar incorporation method, MRSA 15187; format: cell-based, Methicillin Resistant Staphylococcus aureus; design: unit not given here; conditions: Mueller Hinton agar, 10^4 CFU/spot, 24 hours
Text: 2) MRSA 15187—Methicillin Resistant Staphylococcus aureus

Strep.pyog. ATCC 19615 = assay: MIC by agar incorporation method, S.pyogenes 19615; format: cell-based, Streptococcus pyogenes; design: unit not given here; conditions: Mueller Hinton agar, 10^4 CFU/spot, 18 hours
Text: 6) Strep.pyog. ATCC 19615—Streptococcus pyogenes

SMILES	In Vitro (MIC) S. pneum AB 34 (S. pneum AB 34)	In Vitro (MIC) VRE 6A (VRE 6A)	In Vitro (MIC) S.aureus 25923 (S.aureus ATCC 25923)	In Vitro (MIC) MRSA 562 (MRSA 562)	In Vitro (MIC) S. pneum 6303 (Strep. pne. ATCC 6303) [µg/mL]	In Vitro (MIC) MRSA 33 (MRSA 33)	In Vitro (MIC) E.faecalis 29212 (Ent. faecalis ATCC 29212)	In Vitro (MIC) MRSA 15187 (MRSA 15187)	In Vitro (MIC) S.pyogenes 19615 (Strep.pyog. ATCC 19615)
CC(=O)NC[C@H]1CN(c2ccc(N3CCN(Cc4cc([N+](=O)[O-])cs4)CC3)c(F)c2)C(=O)O1 [Compound No. 14, (S)-N-[[3-[3-Fluoro-4-[N-1-[4-{2-thiophen-(4-nitro-)methyl-}]piperazinyl]phenyl]-2-oxo-5-oxazolidinyl]methyl]acetamide]	1	2	0.25	0.25	2	0.25	4	0.25	0.5
CCN(Cc1ccc([N+](=O)[O-])s1)C1CCN(c2ccc(N3C[C@H](CNC(C)=O)OC3=O)cc2F)CC1 [Compound No. 83, (S)-N-[[3-[3-Fluoro-4-[4-{N-ethyl-N-2-thiophenyl-(5-nitro)methyl}-aminopiperidine-1-yl]phenyl]-2-oxo-5-oxazolidinyl]methyl]acetamide]	8	4	4	4	8	4	4	4	8
CC(=O)NC[C@H]1CN(c2ccc(N3CCN(C(C)c4ccc([N+](=O)[O-])s4)CC3)c(F)c2)C(=O)O1 (stereo partly drawn) [Compound No. 100]	2	0.5	0.5	0.5	2	0.5	0.5	0.5	2
CC(=O)NC[C@H]1CN(c2ccc(N3CCCN(C(=O)c4ccc([N+](=O)[O-])o4)CC3)c(F)c2)C(=O)O1 [Compound No. 55, (S)-N-[[3-[3-Fluoro-4-[N-1-[4-{2-furoyl-(5-nitro)}]homopiperazinyl]phenyl]-2-oxo-5-oxazolidinyl]methyl]acetamide]	8	0.25	2	1	8	2	0.25	0.5	4
CC(=O)NC[C@H]1CN(c2ccc(N3CCN(C(=O)C=Cc4ccc([N+](=O)[O-])s4)CC3)c(F)c2)C(=O)O1 [Compound No. 40, (S)-N-[[3-[3-Fluoro-4-[N-1-[4-{2-thiophenoyl-(5-nitro)acrylic}]piperazinyl]phenyl]-2-oxo-5-oxazolidinyl]methyl]-acetamide]	1	0.5	0.5	1	1	0.5	1	0.25	0.5
CC(=O)NC[C@H]1CN(c2ccc(N3CCN(Cc4cc(C#N)c([N+](=O)[O-])s4)CC3)c(F)c2)C(=O)O1 [Compound No. 6]	1	8	2	2	1	2	4	2	1
CC(=O)NC[C@H]1CN(c2ccc(N3CCC(N(C)C(=O)c4ccc([N+](=O)[O-])o4)C(C)C3)c(F)c2)C(=O)O1 (stereo partly drawn) [Compound No. 74, (S)-N-[[3-[3-Fluoro-4-[[3-methyl-4-{N-methyl-2-furoyl-(5-nitro)}]-aminopiperidine-1-y]phenyl]-2-oxo-5-oxazolidinyl]methyl]acetamide]	8	1	<0.5	<0.5	8	1	1	<0.5	8
CC(=O)NC[C@H]1CN(c2ccc(N3CCN(Cc4cc(Br)c([N+](=O)[O-])s4)CC3)c(F)c2)C(=O)O1 [Compound No. 4]	4	2	2	1	4	2	2	1	4
CC(=O)NC[C@H]1CN(c2ccc(N3CCC(N=Cc4ccc([N+](=O)[O-])o4)CC3)c(F)c2)C(=O)O1 [Compound No. 85, (S)-N-[[3-[3-Fluoro-4-[4-{2-furyl-(5-nitro)methylene]-aminopiperidine-1-yl]phenyl]-2-oxo-5-oxazolidinyl]methyl]acetamide]	4	>8	4	4	4	4	>8	4	2
CC(=O)NC[C@H]1CN(c2ccc(N3CCN(Cc4oc([N+](=O)[O-])cc4C)CC3)c(F)c2)C(=O)O1 [Compound No. 5]	1	4	2	2	1	0.254	2	2	0.5
CC(=O)NC[C@H]1CN(c2ccc(N3CCC(CN(C)Cc4ccc([N+](=O)[O-])s4)CC3)c(F)c2)C(=O)O1 [Compound No. 94]	8	4	4	2	4	2	4	2	4
CC(=O)NC[C@H]1CN(c2ccc(N3CCN(C(C)c4ccc([N+](=O)[O-])o4)CC3)c(F)c2)C(=O)O1 (stereo partly drawn) [Compound No. 101]	2	0.25	1	1	1	1	0.125	1	0.06
CCN(C(=O)c1ccc([N+](=O)[O-])s1)C1CCN(c2ccc(N3C[C@H](CNC(C)=O)OC3=O)cc2F)CC1 [Compound No. 79, (S)-N-[[3-[3-Fluoro-4-[4-{N-ethyl-2-thienoyl-(5-nitro)}aminopiperidine-1-yl]phenyl]-2-oxo-5-oxazolidinyl]methyl]acetamide]	4	2	0.5	0.5	4	0.5	2	0.5	0.5
